Source: ChEMBL document CHEMBL5705893, “Targeting the mitotic checkpoint for cancer therapy with NMS-P715, an inhibitor of MPS1 kinase” (Cancer Res, 2010)
Activity calls are given as the source filed them. The rule behind the calls is not given here.

How the values were obtained:
NCI-H522 = assay: Antiproliferative activity against human NCI-H522 cells assessed as inhibition of cell growth incubated for 72 hrs by celltiter-glo assay; assay type: functional, cell-based; conditions: NCI-H522, 72 h
[1] = biological target: Tyrosine-protein kinase Lck (Homo sapiens, UniProt P06239); assay: Inhibition of recombinant LCK (unknown origin)
[2] = biological target: Cyclin-dependent kinase 1/cyclin B1 (Homo sapiens, UniProt P06493); assay: Inhibition of recombinant CDK1/CYCB (unknown origin); assay type: protein-complex assay
A2780 [3] = assay: Induction of apoptosis in human A2780 cells assessed as PARP clevage at 0.2 to 1 micromol/L incubated for 2 to 72 hrs by Western blot analysis; assay type: functional, cell-based; conditions: dose 0.2-1 µmol/L, time 2-72 hrs
LS174T = assay: Antiproliferative activity against human LS174T cells assessed as inhibition of cell growth incubated for 72 hrs by celltiter-glo assay; assay type: functional, cell-based
HeLa [4] = assay: Induction of mitotic arrest in human nocodazole-arrested HeLa cells assessed as delocalization of BUB1 at 1 micromol/L in presence of MG132; assay type: functional, cell-based; conditions: dose 1.0 µmol/L
[5] = biological target: Non-receptor tyrosine-protein kinase TYK2 (Homo sapiens, UniProt P29597); assay: Inhibition of recombinant TYK 2 (unknown origin)
HeLa [6] = assay: Effect on BUBR1 level in human nocodazole-arrested HeLa cells at 1 micromol/L in presence of MG132; assay type: functional, cell-based; conditions: dose 1.0 µmol/L
IGROV-1 = assay: Antiproliferative activity against human IGROV-1 cells assessed as inhibition of cell growth incubated for 72 hrs by celltiter-glo assay; assay type: functional, cell-based; conditions: IGROV-1, 72 h
MOLM-13 = assay: Antiproliferative activity against human MOLM-13 cells assessed as inhibition of cell growth incubated for 72 hrs by celltiter-glo assay; assay type: functional, cell-based; conditions: MOLM-13, 72 h
OVCAR-8 = assay: Antiproliferative activity against human OVCAR-8 cells assessed as inhibition of cell growth incubated for 72 hrs by celltiter-glo assay; assay type: functional, cell-based; conditions: OVCAR-8, 72 h
[7] = Inhibition of recombinant CDK2/CYCA (unknown origin); parameters: species or system Homo sapiens
CCRF-CEM = assay: Antiproliferative activity against human CCRF-CEM cells assessed as inhibition of cell growth incubated for 72 hrs by celltiter-glo assay; assay type: functional, cell-based
[8] = biological target: Maternal embryonic leucine zipper kinase (Homo sapiens, UniProt Q14680); assay: Inhibition of recombinant MELK (unknown origin) preincubated for 60 mins
[9] = biological target: Cyclin-dependent kinase 4/cyclin D1 (Homo sapiens, UniProt P11802); assay: Inhibition of recombinant CDK4/CYCD1 (unknown origin); assay type: protein-complex assay
A2780 [10] = assay: Induction of apoptosis in human A2780 cells assessed as upregulation of histone H3 dephosphorylation at 0.2 to 1 micromol/L incubated for 2 to 72 hrs by Western blot analysis; assay type: functional, cell-based; conditions: dose 0.2-1 µmol/L, time 2-72 hrs
BT-549 = assay: Antiproliferative activity against human BT-549 cells assessed as inhibition of cell growth incubated for 72 hrs by celltiter-glo assay; assay type: functional, cell-based; conditions: BT-549, 72 h
HCC 2998 = assay: Antiproliferative activity against human HCC 2998 cells assessed as inhibition of cell growth incubated for 72 hrs by celltiter-glo assay; assay type: functional, cell-based; conditions: HCC 2998, 72 h
NCI-H146 = assay: Antiproliferative activity against human NCI-H146 cells assessed as inhibition of cell growth incubated for 72 hrs by celltiter-glo assay; assay type: functional, cell-based; conditions: NCI-H146, 72 h
SUD4 = assay: Antiproliferative activity against human SU-DHL-4 cells assessed as inhibition of cell growth incubated for 72 hrs by celltiter-glo assay; assay type: functional, cell-based; conditions: SU-DHL-4, 72 h
NCI-H460 = assay: Antiproliferative activity against human NCI-H460 cells assessed as inhibition of cell growth incubated for 72 hrs by celltiter-glo assay; assay type: functional, cell-based; conditions: NCI-H460, 72 h
[11] = biological target: Proto-oncogene tyrosine-protein kinase receptor Ret (Homo sapiens, UniProt P07949); assay: Inhibition of recombinant RET (unknown origin)
MeWo = assay: Antiproliferative activity against human MeWo cells assessed as inhibition of cell growth incubated for 72 hrs by celltiter-glo assay; assay type: functional, cell-based
LoVo = assay: Antiproliferative activity against human LoVo cells assessed as inhibition of cell growth incubated for 72 hrs by celltiter-glo assay; assay type: functional, cell-based
Calu-3 = assay: Antiproliferative activity against human Calu-3 cells assessed as inhibition of cell growth incubated for 72 hrs by celltiter-glo assay; assay type: functional, cell-based; conditions: Calu-3, 72 h
NHDF = assay: Antiproliferative activity against human NHDF cells assessed as inhibition of cell growth incubated for 72 hrs by celltiter-glo assay; assay type: functional, cell-based
NCI-H526 = assay: Antiproliferative activity against human NCI-H526 cells assessed as inhibition of cell growth incubated for 72 hrs by celltiter-glo assay; assay type: functional, cell-based; conditions: NCI-H526, 72 h
LP-1 = assay: Antiproliferative activity against human LP-1 cells assessed as inhibition of cell growth incubated for 72 hrs by celltiter-glo assay; assay type: functional, cell-based; conditions: LP-1, 72 h
COLO 320 = assay: Antiproliferative activity against human COLO 320 cells assessed as inhibition of cell growth incubated for 72 hrs by celltiter-glo assay; assay type: functional, cell-based; conditions: COLO 320, 72 h
[12] = biological target: High affinity nerve growth factor receptor (Homo sapiens, UniProt P04629); assay: Inhibition of recombinant TRKA (unknown origin)
A2780 [13] = assay: Induction of apoptosis in human A2780 cells assessed as effect on histone H2AX phosphorylation 0.2 to 1 micromol/L incubated for 2 to 72 hrs by Western blot analysis; assay type: functional, cell-based; conditions: dose 0.2-1 µmol/L, time 2-72 hrs
HT1197 = assay: Antiproliferative activity against human HT1197 cells assessed as inhibition of cell growth incubated for 72 hrs by celltiter-glo assay; assay type: functional, cell-based; conditions: HT1197, 72 h
COLO 205 = assay: Antiproliferative activity against human COLO 205 cells assessed as inhibition of cell growth incubated for 72 hrs by celltiter-glo assay; assay type: functional, cell-based; conditions: COLO 205, 72 h
[14] = biological target: Dual specificity protein kinase TTK (Homo sapiens) (UniProt P33981)
Description: Binding affinity to recombinant human MPS1 assessed as half life

[15] = AUC in Athymic nu-nu mouse at 100 mg/kg, po measured upto 24 hrs by LC-MS/MS analysis; assay type: ADME, organism-based; conditions: in vivo
HCT-116 = assay: Growth inhibition of human HCT-116 cells at 1 micromol/L incubated for 24 hrs; assay type: functional, cell-based; conditions: dose 1.0 µmol/L
[16] = biological target: Tyrosine-protein kinase Lyn (Homo sapiens, UniProt P07948); assay: Inhibition of recombinant LYN (unknown origin)
A-375 = assay: Antitumor activity against human A-375 cells xenografted in Athymic nu-nu nude mouse assessed as tumor growth inhibition at 100 mg/kg, po measured after 10 days; assay type: functional; conditions: A-375, 240 h, time 10 day, read-out: TGI
TF-1 = assay: Antiproliferative activity against human TF-1 cells assessed as inhibition of cell growth incubated for 72 hrs by celltiter-glo assay; assay type: functional, cell-based; conditions: TF-1, 72 h
[17] = Volume of distribution at steady state in Athymic nu-nu mouse at 10 mg/kg, iv measured upto 24 hrs by LC-MS/MS analysis; assay type: ADME, organism-based; conditions: in vivo, read-out: Vdss
786-0 = assay: Antiproliferative activity against human 786-0 cells assessed as inhibition of cell growth incubated for 72 hrs by celltiter-glo assay; assay type: functional, cell-based; conditions: 786-0, 72 h

Chain of Proto-oncogene tyrosine-protein kinase receptor Ret (P07949 whole entry): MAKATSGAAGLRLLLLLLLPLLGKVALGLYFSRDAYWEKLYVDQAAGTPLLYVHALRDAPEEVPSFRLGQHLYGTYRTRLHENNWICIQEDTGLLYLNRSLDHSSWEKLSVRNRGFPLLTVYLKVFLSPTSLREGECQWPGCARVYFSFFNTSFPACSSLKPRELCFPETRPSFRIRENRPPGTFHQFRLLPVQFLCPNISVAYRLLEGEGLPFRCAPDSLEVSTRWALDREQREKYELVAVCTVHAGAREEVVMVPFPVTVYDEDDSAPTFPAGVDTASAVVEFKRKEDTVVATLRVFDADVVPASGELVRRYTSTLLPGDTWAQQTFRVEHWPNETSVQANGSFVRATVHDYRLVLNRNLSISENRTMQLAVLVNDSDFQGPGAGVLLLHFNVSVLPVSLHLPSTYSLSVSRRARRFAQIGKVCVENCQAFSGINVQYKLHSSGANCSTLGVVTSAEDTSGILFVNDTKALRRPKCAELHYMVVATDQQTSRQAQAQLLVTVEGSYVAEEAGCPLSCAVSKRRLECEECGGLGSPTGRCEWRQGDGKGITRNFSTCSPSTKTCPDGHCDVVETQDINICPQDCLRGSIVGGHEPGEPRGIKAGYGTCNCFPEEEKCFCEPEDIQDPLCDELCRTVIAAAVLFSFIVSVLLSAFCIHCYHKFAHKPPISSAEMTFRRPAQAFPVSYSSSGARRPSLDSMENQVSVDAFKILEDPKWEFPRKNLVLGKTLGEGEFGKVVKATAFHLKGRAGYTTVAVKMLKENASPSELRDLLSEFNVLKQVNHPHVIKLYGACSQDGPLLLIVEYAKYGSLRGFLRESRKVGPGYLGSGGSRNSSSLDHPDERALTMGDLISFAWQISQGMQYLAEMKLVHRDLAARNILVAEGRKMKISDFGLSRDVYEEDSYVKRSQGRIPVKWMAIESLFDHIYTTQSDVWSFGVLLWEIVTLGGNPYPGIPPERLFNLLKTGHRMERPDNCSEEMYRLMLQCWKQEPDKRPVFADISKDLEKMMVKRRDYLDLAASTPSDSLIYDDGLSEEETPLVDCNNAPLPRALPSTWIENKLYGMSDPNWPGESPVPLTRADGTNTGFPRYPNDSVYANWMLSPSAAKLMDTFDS
Chain of Dual specificity protein kinase TTK (Homo sapiens) (P33981 whole entry): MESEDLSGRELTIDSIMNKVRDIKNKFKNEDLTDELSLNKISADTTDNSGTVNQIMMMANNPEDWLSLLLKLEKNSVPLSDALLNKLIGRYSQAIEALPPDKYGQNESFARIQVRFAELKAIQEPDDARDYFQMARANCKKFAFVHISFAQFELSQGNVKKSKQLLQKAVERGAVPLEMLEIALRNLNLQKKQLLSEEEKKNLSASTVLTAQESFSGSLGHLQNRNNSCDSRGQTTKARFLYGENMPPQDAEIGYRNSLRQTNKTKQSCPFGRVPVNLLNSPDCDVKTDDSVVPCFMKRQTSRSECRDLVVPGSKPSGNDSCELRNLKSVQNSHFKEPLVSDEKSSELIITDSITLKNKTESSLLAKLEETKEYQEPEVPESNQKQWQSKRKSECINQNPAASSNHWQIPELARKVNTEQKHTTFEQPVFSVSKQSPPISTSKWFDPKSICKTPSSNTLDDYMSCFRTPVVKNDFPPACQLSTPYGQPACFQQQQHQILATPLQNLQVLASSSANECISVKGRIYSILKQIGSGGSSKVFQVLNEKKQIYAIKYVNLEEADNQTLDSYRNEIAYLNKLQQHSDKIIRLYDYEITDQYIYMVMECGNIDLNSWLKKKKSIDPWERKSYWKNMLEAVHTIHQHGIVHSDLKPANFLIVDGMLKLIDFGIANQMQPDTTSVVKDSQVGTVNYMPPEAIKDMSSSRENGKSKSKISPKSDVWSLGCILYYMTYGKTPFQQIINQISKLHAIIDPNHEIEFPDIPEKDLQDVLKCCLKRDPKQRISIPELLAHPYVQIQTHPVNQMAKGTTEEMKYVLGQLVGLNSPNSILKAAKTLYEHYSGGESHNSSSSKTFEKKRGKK
Chain of Tyrosine-protein kinase Lyn (P07948 whole entry): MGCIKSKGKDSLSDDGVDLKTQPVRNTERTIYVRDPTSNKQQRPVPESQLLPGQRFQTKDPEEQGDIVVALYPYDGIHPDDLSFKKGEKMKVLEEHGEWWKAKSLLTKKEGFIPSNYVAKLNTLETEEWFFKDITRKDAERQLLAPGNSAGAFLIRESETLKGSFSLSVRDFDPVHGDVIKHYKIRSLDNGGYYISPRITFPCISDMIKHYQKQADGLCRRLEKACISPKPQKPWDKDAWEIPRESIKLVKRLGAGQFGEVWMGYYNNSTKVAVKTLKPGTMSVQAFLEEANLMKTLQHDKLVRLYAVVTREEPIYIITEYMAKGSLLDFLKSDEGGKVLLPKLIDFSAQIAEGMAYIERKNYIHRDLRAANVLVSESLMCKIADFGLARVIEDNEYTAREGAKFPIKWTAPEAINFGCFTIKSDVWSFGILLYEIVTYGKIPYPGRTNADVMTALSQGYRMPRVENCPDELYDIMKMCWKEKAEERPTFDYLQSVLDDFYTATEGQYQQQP
Chain of Non-receptor tyrosine-protein kinase TYK2 (P29597 whole entry): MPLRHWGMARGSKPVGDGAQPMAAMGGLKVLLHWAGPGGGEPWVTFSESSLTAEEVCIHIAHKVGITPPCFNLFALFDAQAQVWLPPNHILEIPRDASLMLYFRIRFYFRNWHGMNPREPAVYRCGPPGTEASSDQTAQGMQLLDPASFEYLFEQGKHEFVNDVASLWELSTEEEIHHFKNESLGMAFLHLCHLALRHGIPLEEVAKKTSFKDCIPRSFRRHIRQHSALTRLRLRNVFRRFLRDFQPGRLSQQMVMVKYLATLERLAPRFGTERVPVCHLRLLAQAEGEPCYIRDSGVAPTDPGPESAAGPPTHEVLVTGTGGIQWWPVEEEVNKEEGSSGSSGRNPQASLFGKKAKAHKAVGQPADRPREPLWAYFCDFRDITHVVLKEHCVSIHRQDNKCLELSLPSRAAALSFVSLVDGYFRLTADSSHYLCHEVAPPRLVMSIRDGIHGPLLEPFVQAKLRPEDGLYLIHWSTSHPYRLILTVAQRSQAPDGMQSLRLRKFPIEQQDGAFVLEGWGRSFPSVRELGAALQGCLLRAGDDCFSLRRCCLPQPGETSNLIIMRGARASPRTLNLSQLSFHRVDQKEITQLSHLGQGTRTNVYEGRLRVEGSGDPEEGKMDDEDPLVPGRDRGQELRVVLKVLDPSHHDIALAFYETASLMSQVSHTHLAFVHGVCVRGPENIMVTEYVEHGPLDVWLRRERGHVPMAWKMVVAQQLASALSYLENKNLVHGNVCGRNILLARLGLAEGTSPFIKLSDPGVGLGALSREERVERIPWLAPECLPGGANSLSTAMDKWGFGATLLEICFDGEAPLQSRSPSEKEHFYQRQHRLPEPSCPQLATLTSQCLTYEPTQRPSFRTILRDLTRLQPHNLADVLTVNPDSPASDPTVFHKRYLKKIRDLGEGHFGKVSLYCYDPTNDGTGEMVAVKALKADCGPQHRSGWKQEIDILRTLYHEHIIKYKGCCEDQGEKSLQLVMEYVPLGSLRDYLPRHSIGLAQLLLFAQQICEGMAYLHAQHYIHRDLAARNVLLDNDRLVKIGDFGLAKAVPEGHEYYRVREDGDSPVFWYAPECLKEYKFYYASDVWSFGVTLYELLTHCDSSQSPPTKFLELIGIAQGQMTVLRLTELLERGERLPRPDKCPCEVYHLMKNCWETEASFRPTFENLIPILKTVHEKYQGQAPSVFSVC
Chain of Cyclin-dependent kinase 1/cyclin B1 (P06493 whole entry): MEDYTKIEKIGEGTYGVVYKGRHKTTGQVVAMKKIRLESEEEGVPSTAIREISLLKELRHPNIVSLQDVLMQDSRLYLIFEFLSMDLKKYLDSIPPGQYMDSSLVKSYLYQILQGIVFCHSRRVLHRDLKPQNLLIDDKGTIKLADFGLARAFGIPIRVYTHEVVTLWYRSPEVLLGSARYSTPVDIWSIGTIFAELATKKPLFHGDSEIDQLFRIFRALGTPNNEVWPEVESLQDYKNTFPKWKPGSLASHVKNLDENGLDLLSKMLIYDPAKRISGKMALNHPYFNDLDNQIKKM
Chain of Cyclin-dependent kinase 1/cyclin B1 (P14635 whole entry, further chain): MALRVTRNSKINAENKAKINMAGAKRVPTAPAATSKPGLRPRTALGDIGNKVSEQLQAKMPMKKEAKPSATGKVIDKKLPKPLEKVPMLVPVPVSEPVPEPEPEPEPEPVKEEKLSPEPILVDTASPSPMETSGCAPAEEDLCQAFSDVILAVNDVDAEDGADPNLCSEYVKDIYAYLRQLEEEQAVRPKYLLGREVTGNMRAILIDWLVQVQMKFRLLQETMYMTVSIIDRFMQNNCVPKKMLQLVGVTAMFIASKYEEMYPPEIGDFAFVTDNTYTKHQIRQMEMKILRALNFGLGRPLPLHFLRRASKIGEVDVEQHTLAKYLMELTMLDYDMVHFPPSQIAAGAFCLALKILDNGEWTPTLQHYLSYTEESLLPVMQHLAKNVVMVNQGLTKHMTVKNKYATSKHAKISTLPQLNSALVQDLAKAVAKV
Chain of Cyclin-dependent kinase 4/cyclin D1 (P11802 whole entry): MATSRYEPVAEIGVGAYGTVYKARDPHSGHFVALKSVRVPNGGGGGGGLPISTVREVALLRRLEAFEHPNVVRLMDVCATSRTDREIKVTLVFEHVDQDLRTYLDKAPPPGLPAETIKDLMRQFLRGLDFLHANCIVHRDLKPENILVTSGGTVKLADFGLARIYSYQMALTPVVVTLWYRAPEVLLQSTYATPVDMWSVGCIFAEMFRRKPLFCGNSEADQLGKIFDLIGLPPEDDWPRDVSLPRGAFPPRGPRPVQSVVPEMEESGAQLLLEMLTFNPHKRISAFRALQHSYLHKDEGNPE
Chain of Cyclin-dependent kinase 4/cyclin D1 (P24385 whole entry, further chain): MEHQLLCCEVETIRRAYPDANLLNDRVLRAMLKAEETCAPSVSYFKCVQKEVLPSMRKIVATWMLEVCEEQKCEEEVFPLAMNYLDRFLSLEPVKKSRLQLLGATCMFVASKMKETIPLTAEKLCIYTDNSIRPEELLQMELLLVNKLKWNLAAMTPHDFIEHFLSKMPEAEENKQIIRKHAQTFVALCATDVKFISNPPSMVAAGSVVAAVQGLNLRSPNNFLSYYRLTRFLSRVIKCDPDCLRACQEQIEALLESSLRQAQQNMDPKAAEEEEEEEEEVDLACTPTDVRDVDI

IC50 (NCI-H522): 1.21 µM
IC50 [1]: > 10 µM
IC50 [2]: > 10 µM
IC50 [5]: > 10 µM
IC50 (MOLM-13): 1.04 µM
IC50 (OVCAR-8): 1.21 µM
IC50 [7]: > 10 µM
IC50 (CCRF-CEM): 1.43 µM
IC50 [8]: < 10 µM
IC50 [9]: > 10 µM
IC50 (BT-549): 1.05 µM
IC50 (HCC 2998): 1.81 µM
IC50 (NCI-H146): 4.28 µM
IC50 (NCI-H460): 2.19 µM
IC50 [11]: > 10 µM
IC50 (LoVo): 1.87 µM
IC50 (Calu-3): 1.44 µM
IC50 (NCI-H526): 2.2 µM
IC50 (COLO 320): 1.28 µM
IC50 [12]: > 10 µM
IC50 (COLO 205): 0.592 µM
T1/2 [14]: 9.76 min
AUC at 24 h [15]: 50.7 µM·h
IC50 [16]: > 10 µM
Vd [17]: 5.45 L/kg
IC50 (786-0): 0.917 µM
Structure (SMILES): CCc1cccc(CC)c1NC(=O)c1nn(C)c2c1CCc1cnc(Nc3ccc(C(=O)NC4CCN(C)CC4)cc3OC(F)(F)F)nc1-2
Activity (A2780 [3]): Active
IC50 (LS174T): 1.94 µM
Activity (HeLa [4]): Active
Activity (HeLa [6]): Active
IC50 (IGROV-1): 1.15 µM
Activity (A2780 [10]): Active
IC50 (SUD4): 1.6 µM
IC50 (MeWo): 3.26 µM
IC50 (NHDF): 10 µM
IC50 (LP-1): 3.48 µM
Activity (A2780 [13]): Active
IC50 (HT1197): 8.3 µM
growth inhibition (GI) (HCT-116): Active
inhibition in vivo at 100 mg/kg (A-375): 43%
IC50 (TF-1): 6.53 µM
